Measured values as given in patent publication US20210214303A1, “SCORPION VENOM BENZOQUINONE DERIVATIVES AND USES THEREOF” (priority 2018, published 2021).
In brackets after ≈: the same amount, converted by molar mass.

Assays:
M. tuberculosis = conditions: related compounds from the literature (Tran et al. 2004); cited from earlier work
Staphylococcus aureus = assay: broth microdilution assay (MIC); assay type: cell-based; conditions: S. aureus, read-out: minimum inhibitory concentration (MIC)
Experimental: FIG. 3D illustrates the determination of the minimal inhibitory concentrations (MICs) of the red and blue 1,4 benzoquinones against Staphylococcus aureus. The MICs determined by the broth microdilution assay are 4 μg/mL for the red 1,4 benzoquinone and 6 μg/mL for the blue 1,4 benzoquinone. Ampicillin was used as a positive control. Each result is reported as the mean±SD.
This difference was confirmed using a broth microdilution assay (FIG. 3D). The minimum inhibitory concentration (MIC) for S. aureus growth was 4 μg/mL for the red 1,4 benzoquinone and 6 μg/mL for the blue 1,4 benzoquinone (FIG. 3D, Table 1). Ampicillin (MIC=0.5 μg/mL) was used as a positive control (ESCMID Eo (2003) Clin. Microbiol. Infect. 9: ix-xv; Pieterse et al., (2010) Brazil. J. Microbiol. 41: 133-145). These compounds were bactericidal at their MICs, killing 90% of S. aureus in 6 h and 99.9% in 24 h (Table 2).

Compound	MIC (M. tuberculosis) [µg/mL]	MIC (Staphylococcus aureus) [µg/mL]
O=C1C=CC(=O)C=C1 [1,4-benzoquinone]	25 (≈ 231 µM)	
O=C1C=CC(=O)c2ccccc21 [1,4-napthoquinone]	100 (≈ 632 µM)	
CC1(C)S[C@@H]2[C@H](NC(=O)[C@H](N)c3ccccc3)C(=O)N2[C@H]1C(=O)O [Ampicillin, reference compound]		0.5 (≈ 1.43 µM)
